The source of these data is US20080280933A1, “BENZIMIDAZOLYL COMPOUNDS” (priority 2006, published 2008).

Molecules are shown by their SMILES. Where only a bound is given, the exact number is not on record here.

The target of one assay is T1, mGluR2 receptor (metabotropic glutamate receptor 2) (Homo sapiens, UniProt Q14416).
T1 construct: expressed in transfected cells
T1 sequence (Q14416 19-872, species assumed): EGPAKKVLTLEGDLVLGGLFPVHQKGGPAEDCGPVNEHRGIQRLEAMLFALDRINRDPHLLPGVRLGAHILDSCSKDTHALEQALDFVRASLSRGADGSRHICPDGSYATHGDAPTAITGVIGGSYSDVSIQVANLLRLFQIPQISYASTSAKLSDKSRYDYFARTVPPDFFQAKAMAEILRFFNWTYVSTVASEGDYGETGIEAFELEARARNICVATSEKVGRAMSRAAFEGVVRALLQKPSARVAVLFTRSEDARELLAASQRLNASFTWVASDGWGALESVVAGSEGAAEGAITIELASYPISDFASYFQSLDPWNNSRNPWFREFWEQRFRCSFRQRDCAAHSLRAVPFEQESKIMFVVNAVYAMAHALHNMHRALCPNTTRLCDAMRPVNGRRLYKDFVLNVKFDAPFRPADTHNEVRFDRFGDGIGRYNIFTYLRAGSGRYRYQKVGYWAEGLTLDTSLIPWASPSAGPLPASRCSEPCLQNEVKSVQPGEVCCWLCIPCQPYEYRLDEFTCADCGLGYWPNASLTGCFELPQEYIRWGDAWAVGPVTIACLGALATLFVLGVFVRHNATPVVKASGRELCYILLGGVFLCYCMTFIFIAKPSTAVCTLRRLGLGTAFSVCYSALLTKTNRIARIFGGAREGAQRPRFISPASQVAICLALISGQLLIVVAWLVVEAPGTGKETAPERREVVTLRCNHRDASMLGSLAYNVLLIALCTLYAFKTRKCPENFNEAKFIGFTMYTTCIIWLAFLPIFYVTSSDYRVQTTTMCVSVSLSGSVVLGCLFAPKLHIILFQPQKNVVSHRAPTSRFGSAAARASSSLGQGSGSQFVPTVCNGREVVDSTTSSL
As to the kind of experiment: mGluR2 Potentiator Screen, FLIPR, EC10-EC20 glutamate challenge. Type of assay: cell-based. As to conditions: EC50 (uM). As for the experimental part: Procedure for mGluR2 Potentiator Screen NLB Methods EC10-EC20 Challenge Cell Culture and Plating:
Cells used for this screen are HEK cells stably transfected with the mGluR2 receptor (metabotropic glutamate receptor 2) and the Gα15 G protein. Clones were identified by functional activity (FLIPR). Cells are grown in growth media containing: DMEM High Glucose with Glutamine and Na Pyruvate (GIBCO), 10% (v/v) Heat inactivate FBS (GIBCO) G418 500 ug/ml (from 50 mg/ml stock) (GIBCO) and Blasticidin 3 ug/ml (from 5 mg/ml stock made in H2O) (Invitrogen).
2 days before the assay cell are trypsinized with 0.25% trysin/EDTA (GIBCO), spun down at 1000 rpm for 5 minutes, resuspended in growth media and plated on polystyrene 384 well black wall/clear bottom poly-D-lysine coated plates at a density of approximately 18,000 cells/well in a volume of 50 μL per well. One day before the assay the growth media is removed from the plates by flicking and replaced with media containing DMEM High Glucose without Glutamine and Na Pyruvate (GIBCO) and 10% (v/v) dialyzed FBS (GIBCO). The reason for the removal of glutamine the day before the assay is to minimize the amount of glutamate that will be present during the assay, as endogenous glutarnate released from the cells can reduce the fluorescent response and interfere with the FLIPR screen.
FLIPR Methods and Data Analysis:
On the day of the assay, the FLIPR assay is performed using the following methods:
The pH is adjusted to 7.4 with 1M NaOH. Prepare a 2 mM (approx.) stock solution of Fluo-4.am (Molecular Probes) dye in DMSO −22 μl DMSO per 50 ug vial (440 μL per 1 mg vial). Make a 1 mM (approx.) flou-4, PA working solution per vial by adding 22 μl of 20% pluronic acid (PA) (Molecular Probes) in DMSO to each 50 ug vial (440 μL per 1 mg vial). Prepare a 250 mM Probenecid (Sigma) stock solution by dissolving 0.71 g into 5 ml 1N NaOH and 5 ml assay buffer (for each liter of assay wash buffer). Make 4 uM (approx.) dye incubation media by adding 2.50 ug vials per 11 ml DMEM high glucose without glutamine (220 ml per 1 mg vial). Add 110 μL probenecid stock per 11 ml (2.5 mM final [concentration]). To the dye media add 3 units/ml of glutamic-pyruvic transaminase (GPT, Sigma) and 3 mM Na Pyruvate. The assay has worked with dye concentrations from 2 uM to 8 uM dye as well. To the assay buffer from drug preparation, add 1.83 mls DMSO and 400 μL. 15.8% P104 (from New Leads biology) per liter for final concentrations of 0.18% DMSO and 0.006% P104. To the assay buffer for cell washing, add probenecid in the same manner and concentration that was used for the dye media.
Remove growth media from cell plates by flicking. Add 50 μl/well dye solution. Incubate 1 hour at 37° C. and 5% CO2. Remove dye solution and wash 3 times with assay buffer+probenecid (100 μl probenecid stock per 10 ml buffer), leaving 30 μL/well assay buffer. Wait at least 10-15 minutes. Compounds and agonist challenge additions are performed with the FLIPR. The in addition is for test compounds, which are added as 15 μL of 4× [concentration] of potentiator. The second 2nd addition is 15 μL of 4× [concentration] of agonist or challenge. This achieves 1× concentration of all compounds only after 2nd addition. The 1st and 2nd additions are performed separately using the FLIPR, which give 2 different data files. Compounds are pretreated at least 30 minutes before agonist addition.
Results are analyzed by dividing the peak fluorescent value of the FLIPR response by the […] to achieve a ratio response. The ratios are then analyzed by curve fitting programs. Since potent compounds can give an inverted U dose response curve (due to effects on endogenous glutamate by the potentiators) points are deleted at concentrations higher than the concentration that gives the maximum effect. Maximum values for dose response curves (forced fitting) are derived from standards on the plate.
Compound Preparation and Glutamate Challenge: […]
Consider `COc1cccc(C2(C#N)CCN(Cc3nc4ccccc4n3C)CC2)c1` [compound 72], for which the EC50 (commonly the concentration giving half of the maximal effect) is 10.6 µM.

Still in this assay, the particulars now being: listed as 1; read-out: EC50.
Regarding `COc1cc(C(F)(F)F)ccc1C1CCN(Cc2nc3ccccc3n2C)CC1` [Entry 354], the EC50 was > 6.17 µM.

Still in this assay, the particulars now being: mGluR2 potentiator screen, Table 7; read-out: EC50.
As for `Cn1c(CN2CCC(c3cc(Cl)ccc3OCC3CCCO3)CC2)nc2ccccc21` (centres unmarked) [compound 207], the EC50 is 0.666 µM. On the same count and under the same terms, with `CCCOc1ccc(Cl)cc1C1CCN(Cc2nc3ccccc3n2CF)CC1` [compound 221] the figure was 0.413 µM. The same measure, in the same setting: with `CCCOc1ccc(Cl)cc1C1CCN(Cc2nc3ccccc3n2C)CC1` [compound 220] the figure was 0.216 µM; with `Clc1ccc(OCC2CCCCO2)c(C2CCN(Cc3nc4ccccc4n3C3CC3)CC2)c1` (centres unmarked) [compound 214], 2.01 µM; with `CC1(COc2ccc(Cl)cc2C2CCN(Cc3nc4ccccc4n3CF)CC2)COC1` [compound 211], 8.22 µM. Regarding `CC[C@H](C)COc1ccc(Cl)cc1C1CCN(Cc2nc3ccccc3n2CCOC)CC1` [compound 176], the EC50 came out at 1.34 µM. For `FCn1c(CN2CCC(c3cc(Cl)ccc3OCC3CCCCO3)CC2)nc2ccccc21` (centres unmarked) [compound 215], the EC50 was 1.57 µM.

Take `COCCn1c(CN2CCC(c3cc(Cl)ccc3OCC3CCCCO3)CC2)nc2ccccc21` (centres unmarked) [compound 218]: the EC50 is 1.55 µM. `COCCn1c(CN2CCC(c3cc(Cl)ccc3OCC3CCC3)CC2)nc2ccccc21` [compound 196]: the EC50 was 0.719 µM. For `Cn1c(CN2CCC(c3cc(Cl)ccc3OCC3CCC3)CC2)nc2ccccc21` [compound 194], the EC50 is 0.473 µM. Take `CC(C)COc1ccc(Cl)cc1C1CCN(Cc2nc3ccccc3n2C)CC1` [compound 178]: the EC50 is 0.499 µM.

As to `CC(C)COc1ccc(Cl)cc1C1CCN(Cc2nc3ccccc3n2CCF)CC1` [compound 181], the EC50 is 2.11 µM. `FCCn1c(CN2CCC(c3cc(Cl)ccc3OCCC3CC3)CC2)nc2ccccc21` [compound 190]: the EC50 stood at 0.141 µM. With `CCCOc1ccc(Cl)cc1C1CCN(Cc2nc3ccccc3n2CCF)CC1` [compound 222], the EC50 came out at 0.248 µM. As for `Cn1c(CN2CCC(c3ccccc3Cl)CC2)nc2c(Br)cccc21` [compound 160], the EC50 worked out at 0.862 µM.

As to `CCCCOc1ccc(Cl)cc1C1CCN(Cc2nc3ccccc3n2C)CC1` [compound 185], the EC50 was found to be 0.138 µM.

Still in this assay, the particulars now being: read-out: EC50.
For the compound `CCC(=O)N1CC2(CCN(Cc3nc4ccccc4n3C)CC2)c2cc(Cl)ccc21` [compound 27], the EC50 is 1.06 µM. Consider `CC(C)CN1CC2(CCN(Cc3nc4ccccc4n3C)CC2)c2cc(F)ccc21` [compound 115], for which the EC50 is 6.49 µM. Regarding `COc1cc(C(F)(F)F)ccc1C1CCN(Cc2nc3ccccc3n2C)CC1` [Entry 354], the EC50 was < 0.0193 µM. Take `Cc1ccc2c(c1)C1(CCN(Cc3nc4ccccc4n3C)CC1)CN2CC1CCCO1` (centres unmarked) [compound 124]: the EC50 was determined as 4.11 µM. On to `Cn1c(CN2CCC(c3ccccc3OCCC3CC3)CC2)nc2ccccc21` [compound 92], for which the EC50 was > 3.27 µM. Regarding `Cn1c(CN2CC[C@@H]3c4ccccc4CC[C@@H]3C2)nc2ccccc21` [compound 67], the EC50 was found to be 0.693 µM.

Take `COc1cc(C(F)(F)F)ccc1C1CCN(Cc2nc3cc(Cl)ccc3n2C)CC1` [compound 383]: the concentration giving a half-maximal response (EC50) was 0.307 µM. Consider `COCC(=O)N1CC2(CCN(Cc3nc4ccccc4n3C)CC2)c2cc(Cl)ccc21` [compound 44], for which the EC50 was > 5.1 µM. Take `CN1CC2(CCN(Cc3nc4ccccc4n3C)CC2)c2cc(F)ccc21` [compound 136]: the EC50 stood at 2.65 µM. Still for that read-out and setting: in the case of `CCOc1ccc(Cl)cc1C1CCN(Cc2nc3ccccc3n2CCF)CC1` [compound 227] it was 0.21 µM; in that of `Cn1c(CN2CCC(c3cc(F)cc(F)c3)CC2)nc2cc(Cl)ccc21` [compound 382], 7.06 µM.

Take `CCCN1CC2(CCN(Cc3nc4ccccc4n3C)CC2)c2ccccc21` [compound 130]: the EC50 was found to be 3.08 µM. Take `CCOc1ccc(Cl)cc1C1CCN(Cc2nc3ccccc3n2CCOC)CC1` [compound 228]: the EC50 turned out to be 0.185 µM.

Take `CC(=O)N1CC2(CCN(Cc3nc4ccccc4n3C)CC2)c2cc(Cl)ccc21` [compound 26]: the EC50 is 2.45 µM.

Regarding `COC(=O)CCCCC(=O)N1CC2(CCN(Cc3nc4ccccc4n3C)CC2)c2cc(C)ccc21` [compound 30], the half-maximal effective concentration (EC50) is 4.89 µM.

With `Cn1c(CN2CCC(c3ccc(C(F)(F)F)cc3)CC2)nc2cc(C(N)=O)ccc21` [compound 364], the EC50 turned out to be 0.498 µM.

As for `COCCn1c(CN2CCC(c3cc(C(F)(F)F)ccc3OC)CC2)nc2ccccc21` [compound 323], the EC50 is 0.984 µM. Turning to `Cn1c(CN2CCC(c3ccc(C(F)(F)F)cc3)CC2)nc2c(F)cccc21` [compound 314], the EC50 came to 0.0438 µM. Still for that read-out and setting: in the case of `Cn1c(CN2CCC3(CC2)CN(CC2CC2)c2ccc(F)cc23)nc2ccccc21` [compound 138] it was 8.59 µM. As to `C[C@@H]1CN(Cc2nc3ccccc3n2C)CC[C@@H]1c1ccc(C(F)(F)F)cc1Cl` (relative stereo) [compound 467], the EC50 is 0.0531 µM.

For `CCOc1ccc(C2CCN(Cc3nc4ccccc4n3C)CC2)cc1` [compound 442], the concentration for a half-maximal effect (EC50) came out at 0.0807 µM.

As to `Cn1c(CN2CCC(c3ccccc3F)CC2)nc2c(C#N)cccc21` [compound 268], the concentration for a half-maximal effect (EC50) was determined as 1.71 µM. With `C#CCOc1ccc(Cl)cc1C1CCN(Cc2nc3ccccc3n2C2CC2)CC1` [compound 235], the EC50 was found to be 0.258 µM. On to `CN(C)CCCOc1ccccc1C1CCN(Cc2nc3ccccc3n2C)CC1` [compound 88], for which the EC50 is 4.19 µM. As to `Cn1c(CN2CCC3(CC2)CNc2ccc(Cl)cc23)nc2ccccc21` [compound 128], the EC50 is > 8.98 µM. As for `Cn1c(CN2CCC(c3cc(F)ccc3F)CC2)nc2ccccc21` [compound 311], the EC50 worked out at 0.0161 µM. On to `Cn1c(CN2CCC3(CC2)CN(CC2CC2)c2ccccc23)nc2ccccc21` [compound 134], for which the EC50 turned out to be 7.38 µM. For `COc1ccccc1[C@H]1CCN(Cc2nc3ccccc3n2C2CC2)C[C@H]1C` (relative stereo) [compound 338], the EC50 is 1.45 µM.

As to `Cn1c(CN2CCCC(c3ccc(C(F)(F)F)cc3)CC2)nc2ccccc21` (centres unmarked) [compound 303], the EC50 worked out at 0.868 µM. The same measure, in the same setting: with `Cn1c(CN2CCC(F)(c3ccc(C(F)(F)F)cc3)CC2)nc2ccccc21` [compound 433] the figure was 0.122 µM; with `COCCn1c(CN2CCC(c3cc(Cl)ccc3OC)CC2)nc2ccccc21` [compound 230], 0.209 µM. As to `C[C@@H]1CN(Cc2nc3ccccc3n2C)CC[C@@H]1c1ccc(F)c(F)c1` (single isomer, unassigned) [Entry 473, 2-{[Cis-4-(3,4-Difluoro-phenyl)-3-methyl-piperidin-1-yl]methyl}-1-methyl-1H-benzoimidazole], the EC50 amounted to 1.03 µM. Take `COc1ccccc1C1(OC)CCN(Cc2nc3ccccc3n2CCF)CC1C` (centres unmarked) [compound 335]: the EC50 turned out to be 10.4 µM. For the compound `Cc1ccc2c(c1)C1(CCN(Cc3nc4ccccc4n3C)CC1)CN2C(=O)c1ccoc1` [compound 29], the EC50 was found to be 2.43 µM. `Cn1c(CN2CCC(c3cc(F)cc(F)c3)CC2)nc2ccccc21` [compound 415]: the EC50 is 0.189 µM.

In the case of `Cn1c(CN2CCC3(CC2)CN(Cc2ccccc2)c2ccccc23)nc2ccccc21` [compound 109], the EC50 was found to be 5.22 µM. Take `C[C@@H]1CN(c2cccc(C3CCN(Cc4nc5ccccc5n4C)CC3)c2)C[C@H](C)O1` [compound 83]: the EC50 was found to be 0.82 µM.

With `COc1ccc(C(F)(F)F)cc1C1CCN(Cc2nc3cc(Cl)ccc3n2C)CC1` [compound 386], the EC50 is > 3.74 µM.
